Measured values: patent US20100056524A1, “Compound” (priority 2008, published 2010)

target: T1, TBK1 (Homo sapiens, UniProt Q9UHD2); assay: TBK1 protein kinase assay ([γ-33P]ATP, P81 filterplates); format: biochemical; details: 50 μM ATP; read-out: Potency (TBK1 IC50 potency score)
T1 construct: All protein kinases were of human origin and encoded full length proteins, unless indicated otherwise; His6; made in house; host or cells: insect Sf21 cells
T1 sequence (Q9UHD2 1-729): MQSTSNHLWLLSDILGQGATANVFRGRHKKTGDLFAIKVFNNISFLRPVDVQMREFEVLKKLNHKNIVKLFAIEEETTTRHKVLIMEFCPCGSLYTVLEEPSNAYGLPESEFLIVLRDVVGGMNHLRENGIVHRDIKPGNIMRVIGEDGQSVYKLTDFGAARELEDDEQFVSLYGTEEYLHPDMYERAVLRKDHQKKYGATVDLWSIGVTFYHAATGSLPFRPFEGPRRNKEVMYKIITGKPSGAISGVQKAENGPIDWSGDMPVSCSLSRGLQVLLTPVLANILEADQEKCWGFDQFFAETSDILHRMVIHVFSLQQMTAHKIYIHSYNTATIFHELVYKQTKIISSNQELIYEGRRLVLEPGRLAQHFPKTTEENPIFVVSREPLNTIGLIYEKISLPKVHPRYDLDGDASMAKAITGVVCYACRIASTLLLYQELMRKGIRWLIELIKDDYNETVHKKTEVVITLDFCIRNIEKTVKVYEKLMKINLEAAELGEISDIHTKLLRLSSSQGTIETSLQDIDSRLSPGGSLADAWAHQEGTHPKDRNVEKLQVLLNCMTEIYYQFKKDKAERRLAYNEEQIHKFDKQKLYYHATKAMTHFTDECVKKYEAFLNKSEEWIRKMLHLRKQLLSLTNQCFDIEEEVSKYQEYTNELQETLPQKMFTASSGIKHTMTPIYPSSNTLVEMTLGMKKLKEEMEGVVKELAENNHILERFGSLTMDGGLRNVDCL
How it was run: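 Human TBK1 assayed for 30 min with peptide substrate (300 μM), 50 μM [γ-33P]ATP and 10 mM magnesium acetate in 50 mM Tris/HCl pH 7.5, 0.1 mM EGTA, 0.1% 2-mercaptoethanol. Stopped with orthophosphoric acid and counted on P81 filters. IC50 from 10 compound concentrations.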

`CN(C)[C@@H]1CCN(Cc2ccc(Nc3ncc(C4CC4)c(NCCCNC(=O)C4CCC4)n3)cn2)C1` [Example 159, Cyclobutanecarboxylic acid (3-{5-cyclopropyl-2-[6-((R)-3-dimethylamino-pyrrolidin-1-ylmethyl)-pyridin-3-ylamino]-pyrimidin-4-ylamino}-propyl)-amide] and `CN(C)Cc1ccc(Nc2ncc(C3CC3)c(NCCCNC(=O)C3CCC3)n2)cc1` [Example 173, Cyclobutanecarboxylic acid (3-{5-cyclopropyl-2-[4-(2-dimethylamino-methyl)-phenylamino]-pyrimidin-4-ylamino}-propyl)-amide] cannot be ordered by IC50: < 100 nM for the first, < 100 nM for the second.

`O=C(NCCCNc1nc(Nc2cnn(CCN3CCCCC3)c2)ncc1C1CC1)C1CCC1` [Example 160, Cyclobutanecarboxylic acid (3-{5-cyclopropyl-2-[1-(2-piperidin-1-yl-ethyl)-1H-pyrazol-4-ylamino]-pyrimidin-4-ylamino}-propyl)-amide] and `O=C(NCCCNc1nc(Nc2ccc(CCN3CCCC3)cc2)ncc1C1CC1)C1CCC1` [Example 183, Cyclobutanecarboxylic acid (3-{5-cyclopropyl-2-[4-(2-pyrrolidin-1-yl-ethyl)-phenylamino]-pyrimidin-4-ylamino}-propyl)-amide] cannot be ordered by IC50: < 100 nM for the first, < 100 nM for the second.

`CC(C)n1cc(Nc2ncc(C3CC3)c(NCCCNC(=O)C3CCC3)n2)cn1` [Example 161, Cyclobutanecarboxylic acid {3-[5-cyclopropyl-2-(1-isopropyl-1H-pyrazol-4-ylamino)-pyrimidin-4-ylamino]-propyl}-amide] and `O=C(NCCCNc1nc(Nc2ccc3nccn3c2)ncc1C1CC1)C1CCC1` [Example 186, Cyclobutanecarboxylic acid {3-[5-cyclopropyl-2-(imidazo[1,2-a]pyridin-6-ylamino)-pyrimidin-4-ylamino]-propyl}-amide] cannot be ordered by IC50: < 100 nM for the first, < 100 nM for the second.

Compared with `O=C(C1CCC1)N1CC(CNc2nc(Nc3cccc(F)c3)ncc2C2CC2)C1` [Example 162, Cyclobutyl-(3-{[5-cyclopropyl-2-(3-fluoro-phenylamino)-pyrimidin-4-ylamino]-methyl}-azetidin-1-yl)-methanone], `Cn1c(=O)n(C)c2cc(Nc3ncc(C4CC4)c(NCCCNC(=O)C4CCC4)n3)ccc21` [Example 179, Cyclobutanecarboxylic acid {3-[5-cyclopropyl-2-(1,3-dimethyl-2-oxo-2,3-dihydro-1H-benzimidazol-5-ylamino)-pyrimidin-4-ylamino]-propyl}-amide] is lower in IC50: 100 to 1000 nM for the first, < 100 nM for the second. The second is the more potent here.

`O=C(NCCCNc1nc(Nc2ccc(S(=O)(=O)Nc3ncccn3)cc2)ncc1C1CC1)C1CCC1` [Example 163, Cyclobutanecarboxylic acid (3-{5-cyclopropyl-2-[4-(pyrimidin-2-ylsulfamoyl)-phenylamino]-pyrimidin-4-ylamino}-propyl)-amide] and `O=C(NCCCNc1nc(Nc2ccc(-n3cncn3)cc2)ncc1C1CC1)C1CCC1` [Example 169, Cyclobutanecarboxylic acid (3-{5-cyclopropyl-2-[4-(2H-1,2,4-triazol-1-yl)-phenylamino]-pyrimidin-4-ylamino}-propyl)-amide] cannot be ordered by IC50: < 100 nM for the first, < 100 nM for the second.

`CNC(=O)c1ccc(Nc2ncc(C3CC3)c(NCCCNC(=O)C3CCC3)n2)cc1` [Example 164, 4-{4-[3-(Cyclobutanecarbonyl-amino)-propylamino]-5-cyclopropyl-pyrimidin-2-ylamino}-N-methyl-benzamide] and `CN(C)C(=O)c1ccc(Nc2ncc(C3CC3)c(NCCCNC(=O)C3CCC3)n2)cc1` [Example 180, 4-{4-[3-(Cyclobutanecarbonyl-amino)-propylamino]-5-cyclopropyl-pyrimidin-2-ylamino}-N,N-dimethyl-benzamide] cannot be ordered by IC50: < 100 nM for the first, < 100 nM for the second.

`CN1CCN(c2ccc(Nc3ncc(C4CC4)c(NCCCNC(=O)C4CCC4)n3)cc2)CC1` [Example 165, Cyclobutanecarboxylic acid (3-{5-cyclopropyl-2-[4-(4-methyl-piperazin-1-yl)-phenylamino]-pyrimidin-4-ylamino}-propyl)-amide] and `O=C(NCCCNc1nc(Nc2ccc(N3CCOCC3)cc2)ncc1C1CC1)C1CCC1` [Example 166, Cyclobutanecarboxylic acid {3-[5-cyclopropyl-2-(4-morpholin-4-yl-phenylamino)-pyrimidin-4-ylamino]-propyl}-amide] cannot be ordered by IC50: < 100 nM for the first, < 100 nM for the second.

`CN1Cc2cc(Nc3ncc(C4CC4)c(NCCCNC(=O)C4CCC4)n3)ccc2C1=O` [Example 167, Cyclobutanecarboxylic acid {3-[5-cyclopropyl-2-(2-methyl-1-oxo-2,3-dihydro-1H-isoindol-5-ylamino)-pyrimidin-4-ylamino]-propyl}-amide] and `O=C(NCCCNc1nc(Nc2ccc3c(c2)CN(CCO)C3=O)ncc1C1CC1)C1CCC1` [Example 168, Cyclobutanecarboxylic acid (3-{5-cyclopropyl-2-[2-(2-hydroxy-ethyl)-1-oxo-2,3-dihydro-1H-isoindol-5-ylamino]-pyrimidin-4-ylamino}propyl)-amide] cannot be ordered by IC50: < 100 nM for the first, < 100 nM for the second.

`O=C1Cc2cc(Nc3ncc(C4CC4)c(NCCCNC(=O)C4CCC4)n3)ccc2N1` [Example 170, Cyclobutanecarboxylic acid {3-[5-cyclopropyl-2-(2-oxo-2,3-dihydro-1H-indol-5-ylamino)-pyrimidin-4-ylamino]-propyl}-amide] and `O=C(NCCCNc1nc(Nc2ccc3[nH]c(=O)[nH]c3c2)ncc1C1CC1)C1CCC1` [Example 178, Cyclobutanecarboxylic acid {3-[5-cyclopropyl-2-(2-oxo-2,3-dihydro-1H-benzimidazol-5-ylamino)-pyrimidin-4-ylamino]-propyl}-amide] cannot be ordered by IC50: < 100 nM for the first, < 100 nM for the second.

`CN1CCC(c2ccc(Nc3ncc(C4CC4)c(NCCCNC(=O)C4CCC4)n3)cc2)CC1` [Example 171, Cyclobutanecarboxylic acid (3-{5-cyclopropyl-2-[4-(1-methyl-piperidin-4-yl)-phenylamino]-pyrimidin-4-ylamino}-propyl)-amide] and `CN1CCN(C(=O)c2ccc(Nc3ncc(C4CC4)c(NCCCNC(=O)C4CCC4)n3)cc2)CC1` [Example 175, Cyclobutanecarboxylic acid (3-{5-cyclopropyl-2-[4-(4-methyl-piperazine-1-carbonyl)-phenylamino]-pyrimidin-4-ylamino}-propyl)-amide] cannot be ordered by IC50: < 100 nM for the first, < 100 nM for the second.

`CN(C)CCc1ccc(Nc2ncc(C3CC3)c(NCCCNC(=O)C3CCC3)n2)cc1` [Example 172, Cyclobutanecarboxylic acid (3-{5-cyclopropyl-2-[4-(2-dimethylamino-ethyl)-phenylamino]-pyrimidin-4-ylamino}-propyl)-amide] and `O=C(NCCCNc1nc(Nc2ccc(CCO)cc2)ncc1C1CC1)C1CCC1` [Example 177, Cyclobutanecarboxylic acid (3-{5-cyclopropyl-2-[4-(2-hydroxy-ethyl)-phenylamino]-pyrimidin-4-ylamino}-propyl)-amide] cannot be ordered by IC50: < 100 nM for the first, < 100 nM for the second.

`O=C(NCCCNc1nc(Nc2ccc(C(=O)N3CCOCC3)cc2)ncc1C1CC1)C1CCC1` [Example 174, Cyclobutanecarboxylic acid (3-{5-cyclopropyl-2-[4-(morpholine-4-carbonyl)-phenylamino]-pyrimidin-4-ylamino}-propyl)-amide] and `O=C(NCCCNc1nc(Nc2ccc(N3CCCC3=O)cc2)ncc1C1CC1)C1CCC1` [Example 184, Cyclobutanecarboxylic acid (3-{5-cyclopropyl-2-[4-(2-oxo-pyrrolidin-1-yl)-phenylamino]-pyrimidin-4-ylamino}-propyl)-amide. xHCl] cannot be ordered by IC50: < 100 nM for the first, < 100 nM for the second.

`CN(C)CCN(C)C(=O)c1ccc(Nc2ncc(C3CC3)c(NCCCNC(=O)C3CCC3)n2)cc1` [Example 176, 4-{4-[3-(Cyclobutanecarbonyl-amino)-propylamino]-5-cyclopropyl-pyrimidin-2-ylamino}-N-(2-dimethylamino-ethyl)-N-methyl-benzamide] and `O=C(NCCCNc1nc(Nc2ccc(-c3cnco3)cc2)ncc1C1CC1)C1CCC1` [Example 181, Cyclobutanecarboxylic acid {3-[5-cyclopropyl-2-(4-oxazol-5-yl-phenylamino)-pyrimidin-4-ylamino]-propyl}-amide] cannot be ordered by IC50: < 100 nM for the first, < 100 nM for the second.

`O=C(NCCCNc1nc(Nc2ccc(Cn3cncn3)cc2)ncc1C1CC1)C1CCC1` [Example 182, Cyclobutanecarboxylic acid {3-[5-cyclopropyl-2-(4-1,2,4-triazol-1-ylmethyl-phenylamino)-pyrimidin-4-ylamino]-propyl}-amide] and `O=C(NCCCNc1nc(Nc2ccc(-c3cnco3)nc2)ncc1C1CC1)C1CCC1` [Example 185, Cyclobutanecarboxylic acid {3-[5-cyclopropyl-2-(6-oxazol-5-yl-pyridin-3-ylamino)-pyrimidin-4-ylamino]-propyl}-amide] cannot be ordered by IC50: < 100 nM for the first, < 100 nM for the second.

With `O=C(NCCCNc1nc(Nc2ccc(NCC3CCOCC3)nc2)ncc1C1CC1)C1CCC1` [Example 187] the IC50 was < 100 nM.
